Measurements: BindingDB's records for doi:10.1016/s0960-894x(03)00461-x (Eli Lilly, 2003)

target: cAMP-dependent protein kinase catalytic subunit alpha (Bos taurus, UniProt P00517); assay: CDK Kinase Inhibition Assay; settings: 25 °C

| IC50 | Structure (SMILES) |
| --- | --- |
| > 20 µM | Cn1ccc2ccc3c4[nH]c5cc(C#N)ccc5c4c4c(c3c21)C(=O)NC4=O [18-methyl-12,14-dioxo-3,13,18-triazahexacyclo[14.7.0.0^{2,10}.0^{4,9}.0^{11,15}.0^{17,21}]tricosa-1(16),2(10),4(9),5,7,11(15),17(21),19,22-nonaene-6-carbonitrile] |
| > 20 µM | COc1cccc2c1[nH]c1c3ccc4ccn(C)c4c3c3c(c21)C(=O)NC3=O [5-methoxy-18-methyl-3,13,18-triazahexacyclo[14.7.0.0^{2,10}.0^{4,9}.0^{11,15}.0^{17,21}]tricosa-1(16),2(10),4(9),5,7,11(15),17(21),19,22-nonaene-12,14-dione] |
| > 20 µM | Cc1ccc2c(c1)[nH]c1c3ccc4ccn(C)c4c3c3c(c21)C(=O)NC3=O [6,18-dimethyl-3,13,18-triazahexacyclo[14.7.0.0^{2,10}.0^{4,9}.0^{11,15}.0^{17,21}]tricosa-1(16),2(10),4(9),5,7,11(15),17(21),19,22-nonaene-12,14-dione] |
| > 20 µM | Cn1ccc2ccc3c4[nH]c5c(CCCN6CCOCC6)cccc5c4c4c(c3c21)C(=O)NC4=O [18-methyl-5-[3-(morpholin-4-yl)propyl]-3,13,18-triazahexacyclo[14.7.0.0^{2,10}.0^{4,9}.0^{11,15}.0^{17,21}]tricosa-1(16),2(10),4(9),5,7,11(15),17(21),19,22-nonaene-12,14-dione] |
| > 20 µM | Cn1ccc2cc(F)c3c4[nH]c5ccccc5c4c4c(c3c21)C(=O)NC4=O [23-fluoro-18-methyl-3,13,18-triazahexacyclo[14.7.0.0^{2,10}.0^{4,9}.0^{11,15}.0^{17,21}]tricosa-1(16),2(10),4(9),5,7,11(15),17(21),19,22-nonaene-12,14-dione] |
| > 20 µM | Cn1ccc2ccc3c4[nH]c5c(CCCO)cccc5c4c4c(c3c21)C(=O)NC4=O [5-(3-hydroxypropyl)-18-methyl-3,13,18-triazahexacyclo[14.7.0.0^{2,10}.0^{4,9}.0^{11,15}.0^{17,21}]tricosa-1(16),2(10),4(9),5,7,11(15),17(21),19,22-nonaene-12,14-dione] |
| > 20 µM | Cn1ccc2ccc3c4[nH]c5ccc(F)cc5c4c4c(c3c21)C(=O)NC4=O [7-fluoro-18-methyl-3,13,18-triazahexacyclo[14.7.0.0^{2,10}.0^{4,9}.0^{11,15}.0^{17,21}]tricosa-1(16),2(10),4(9),5,7,11(15),17(21),19,22-nonaene-12,14-dione] |
| > 20 µM | Cn1ccc2ccc3c4[nH]c5cc(F)ccc5c4c4c(c3c21)C(=O)NC4=O [6-fluoro-18-methyl-3,13,18-triazahexacyclo[14.7.0.0^{2,10}.0^{4,9}.0^{11,15}.0^{17,21}]tricosa-1(16),2(10),4(9),5,7,11(15),17(21),19,22-nonaene-12,14-dione] |
| > 20 µM | O=C1NC(=O)c2c1c1c(ccc3cc[nH]c31)c1c2c2ccccc2n1CCCO [3-(3-hydroxypropyl)-3,13,18-triazahexacyclo[14.7.0.0^{2,10}.0^{4,9}.0^{11,15}.0^{17,21}]tricosa-1(16),2(10),4(9),5,7,11(15),17(21),19,22-nonaene-12,14-dione] |
| > 2 µM | O=C1NC(=O)c2c1c1c(ccc3cc[nH]c31)c1[nH]c3ccccc3c21 [3,13,18-triazahexacyclo[14.7.0.0^{2,10}.0^{4,9}.0^{11,15}.0^{17,21}]tricosa-1(16),2(10),4(9),5,7,11(15),17(21),19,22-nonaene-12,14-dione] |
| > 20 µM | Cn1ccc2ccc3c4[nH]c5cccc(Br)c5c4c4c(c3c21)C(=O)NC4=O [8-bromo-18-methyl-3,13,18-triazahexacyclo[14.7.0.0^{2,10}.0^{4,9}.0^{11,15}.0^{17,21}]tricosa-1(16),2(10),4(9),5,7,11(15),17(21),19,22-nonaene-12,14-dione] |
| > 20 µM | Cc1cc2ccn(C)c2c2c3c(c4c5ccccc5[nH]c4c12)C(=O)NC3=O [18,23-dimethyl-3,13,18-triazahexacyclo[14.7.0.0^{2,10}.0^{4,9}.0^{11,15}.0^{17,21}]tricosa-1(16),2(10),4(9),5,7,11(15),17(21),19,22-nonaene-12,14-dione] |

The remaining lines, values behind:

| Structure (SMILES) | IC50 |
| --- | --- |
| COC(=O)C1CCN(CCc2cccc3c2[nH]c2c4ccc5ccn(C)c5c4c4c(c32)C(=O)NC4=O)CC1 [methyl 1-(2-{18-methyl-12,14-dioxo-3,13,18-triazahexacyclo[14.7.0.0^{2,10}.0^{4,9}.0^{11,15}.0^{17,21}]tricosa-1(16),2(10),4(9),5,7,11(15),17(21),19,22-nonaen-5-yl}ethyl)piperidine-4-carboxylate] | > 20 µM |
| CCOc1ccc2c(c1)[nH]c1c3ccc4ccn(C)c4c3c3c(c21)C(=O)NC3=O [6-ethoxy-18-methyl-3,13,18-triazahexacyclo[14.7.0.0^{2,10}.0^{4,9}.0^{11,15}.0^{17,21}]tricosa-1(16),2(10),4(9),5,7,11(15),17(21),19,22-nonaene-12,14-dione] | > 20 µM |
| Cc1cc2ccn(C)c2c2c3c(c4c5ccc(F)cc5[nH]c4c12)C(=O)NC3=O [6-fluoro-18,23-dimethyl-3,13,18-triazahexacyclo[14.7.0.0^{2,10}.0^{4,9}.0^{11,15}.0^{17,21}]tricosa-1(16),2(10),4(9),5,7,11(15),17(21),19,22-nonaene-12,14-dione] | > 20 µM |
| COc1ccc2[nH]c3c4ccc5ccn(C)c5c4c4c(c3c2c1)C(=O)NC4=O [7-methoxy-18-methyl-3,13,18-triazahexacyclo[14.7.0.0^{2,10}.0^{4,9}.0^{11,15}.0^{17,21}]tricosa-1(16),2(10),4(9),5,7,11(15),17(21),19,22-nonaene-12,14-dione] | > 20 µM |
| COc1ccc2c(c1)[nH]c1c2c2c(c3c1c(C)cc1ccn(C)c13)C(=O)NC2=O [6-methoxy-18,23-dimethyl-3,13,18-triazahexacyclo[14.7.0.0^{2,10}.0^{4,9}.0^{11,15}.0^{17,21}]tricosa-1(16),2(10),4(9),5,7,11(15),17(21),19,22-nonaene-12,14-dione] | > 20 µM |
| Cn1ccc2ccc3c4[nH]c5c(CCN6CCOCC6)cccc5c4c4c(c3c21)C(=O)NC4=O [18-methyl-5-[2-(morpholin-4-yl)ethyl]-3,13,18-triazahexacyclo[14.7.0.0^{2,10}.0^{4,9}.0^{11,15}.0^{17,21}]tricosa-1(16),2(10),4(9),5,7,11(15),17(21),19,22-nonaene-12,14-dione] | > 20 µM |
| COc1ccc2c3c4c(c5c(ccc6ccn(C)c65)c3n(CCN3CCC[C@H]3CO)c2c1)C(=O)NC4=O [3-{2-[(2S)-2-(hydroxymethyl)pyrrolidin-1-yl]ethyl}-6-methoxy-18-methyl-3,13,18-triazahexacyclo[14.7.0.0^{2,10}.0^{4,9}.0^{11,15}.0^{17,21}]tricosa-1(16),2(10),4(9),5,7,11(15),17(21),19,22-nonaene-12,14-dione] | > 20 µM |
| Cn1ccc2ccc3c4[nH]c5c(CCO)cccc5c4c4c(c3c21)C(=O)NC4=O [5-(2-hydroxyethyl)-18-methyl-3,13,18-triazahexacyclo[14.7.0.0^{2,10}.0^{4,9}.0^{11,15}.0^{17,21}]tricosa-1(16),2(10),4(9),5,7,11(15),17(21),19,22-nonaene-12,14-dione] | > 20 µM |
| Cn1ccc2ccc3c(c4c(c5c6ccccc6n(CCCO)c35)C(=O)NC4=O)c21 [3-(3-hydroxypropyl)-18-methyl-3,13,18-triazahexacyclo[14.7.0.0^{2,10}.0^{4,9}.0^{11,15}.0^{17,21}]tricosa-1(16),2(10),4(9),5,7,11(15),17(21),19,22-nonaene-12,14-dione] | > 2 µM |
| Cn1ccc2ccc3c4[nH]c5cc(Br)ccc5c4c4c(c3c21)C(=O)NC4=O [6-bromo-18-methyl-3,13,18-triazahexacyclo[14.7.0.0^{2,10}.0^{4,9}.0^{11,15}.0^{17,21}]tricosa-1(16),2(10),4(9),5,7,11(15),17(21),19,22-nonaene-12,14-dione] | > 20 µM |
| Cn1ccc2ccc3c4[nH]c5c(CCN6CCSCC6)cccc5c4c4c(c3c21)C(=O)NC4=O [18-methyl-5-[2-(thiomorpholin-4-yl)ethyl]-3,13,18-triazahexacyclo[14.7.0.0^{2,10}.0^{4,9}.0^{11,15}.0^{17,21}]tricosa-1(16),2(10),4(9),5,7,11(15),17(21),19,22-nonaene-12,14-dione] | > 20 µM |
| Cn1ccc2ccc3c4[nH]c5cc(C(F)(F)F)ccc5c4c4c(c3c21)C(=O)NC4=O [18-methyl-6-(trifluoromethyl)-3,13,18-triazahexacyclo[14.7.0.0^{2,10}.0^{4,9}.0^{11,15}.0^{17,21}]tricosa-1(16),2(10),4(9),5,7,11(15),17(21),19,22-nonaene-12,14-dione] | > 20 µM |
| CCn1ccc2ccc3c4[nH]c5ccccc5c4c4c(c3c21)C(=O)NC4=O [18-ethyl-3,13,18-triazahexacyclo[14.7.0.0^{2,10}.0^{4,9}.0^{11,15}.0^{17,21}]tricosa-1(16),2(10),4(9),5,7,11(15),17(21),19,22-nonaene-12,14-dione] | > 2 µM |
| Cn1ccc2ccc3c4[nH]c5cccc(F)c5c4c4c(c3c21)C(=O)NC4=O [8-fluoro-18-methyl-3,13,18-triazahexacyclo[14.7.0.0^{2,10}.0^{4,9}.0^{11,15}.0^{17,21}]tricosa-1(16),2(10),4(9),5,7,11(15),17(21),19,22-nonaene-12,14-dione] | > 20 µM |
| Cn1ccc2ccc3c4[nH]c5ccccc5c4c4c(c3c21)C(=O)NC4=O [18-methyl-3,13,18-triazahexacyclo[14.7.0.0^{2,10}.0^{4,9}.0^{11,15}.0^{17,21}]tricosa-1(16),2(10),4(9),5,7,11(15),17(21),19,22-nonaene-12,14-dione] | > 20 µM |
| Cc1cc2ccn(C)c2c2c3c(c4c5ccc(C(F)(F)F)cc5[nH]c4c12)C(=O)NC3=O [18,23-dimethyl-6-(trifluoromethyl)-3,13,18-triazahexacyclo[14.7.0.0^{2,10}.0^{4,9}.0^{11,15}.0^{17,21}]tricosa-1(16),2(10),4(9),5,7,11(15),17(21),19,22-nonaene-12,14-dione] | > 20 µM |
| COc1ccc2c(c1)[nH]c1c3ccc4ccn(C)c4c3c3c(c21)C(=O)NC3=O [6-methoxy-18-methyl-3,13,18-triazahexacyclo[14.7.0.0^{2,10}.0^{4,9}.0^{11,15}.0^{17,21}]tricosa-1(16),2(10),4(9),5,7,11(15),17(21),19,22-nonaene-12,14-dione] | > 20 µM |
